Experimental data: paper PMC7143862, “Prostaglandins Isolated from the Octocoral Plexaura homomalla: In Silico and In Vitro Studies Against Different Enzymes of Cancer” (Marine Drugs, 2020)
In brackets after ≈: the same amount, converted by molar mass.

Key:
[1] = system: A549 lung cancer cell line; assay: MTT cell proliferation assay, A549; format: cell-based, human; settings: lung cancer cells; for IC50: Homo sapiens, A549, 48 h treatment
Excerpt: (§1) All materials and reagents for cell culture were purchased from Sigma Aldrich (Saint Louis, MS, USA). For the assay, two human cancer cell lines and two cell lines, one human and one mouse as controls, were used. The human breast cancer cell line (MDA-MB-231 ATCC®) and lung cancer cell line (A549 ATCC®) were maintained in Dulbecco’s modified Eagle medium (DMEM) supplemented with 10% of fetal bovine serum and 1% of penicillin. The primary human dermal fibroblasts from adult skin (HDFa ATCC®) and the cell line from mouse adipose tissue (L929 ATCC®) were maintained in Roswell Park Memorial Institute medium (RPMI) supplemented with 10% of fetal bovine serum and 1% of penicillin, all cells in incubator with 5% CO2 at 37 °C [25].
(§2) Antiproliferative studies were carried out using the modified MTT assay based on a previously published method. In this case, 100 μL of cell suspension from the tumor lines was seeded in 96-well plates with a cellular density of 20,000 cells/well and incubated with 5% CO2 at 37 °C to allow cell adhesion. After 48 h, the supernatant was discarded and the cells were treated with different concentrations (5, 10, 25, 50, and 100 μg/mL) of the natural compounds 1 and 2 and the semisynthetic derivatives 3–5 dissolved in an unsupplemented medium. The plate was incubated for 48 h with 5% CO2 at 37 °C. Subsequently, 100 μL of an MTT solution at 0.5 mg/mL was added to each well and placed back in the incubator for 2 h. The supernatant was removed and 100 μL of DMSO was added to incubate for 15 min. Finally, absorbance (OD) at 595 nm was measured on an iMark ™ Microplate reader (Bio-Rad, Hercules, CA, USA).
(§3) The cytotoxic activity was quantified by calculating the mean inhibitory concentration (IC50), normalizing the absorbance data and converting them into percentages of inhibition. With a nonlinear 4PL regression, the IC50 was found, as developed by Sebaugh, using the PrimsGraph Pad® program (GraphPad Software Inc., San Diego, CA, USA).

[2] = system: HDFa dermal fibroblast cell line; assay: MTT cell proliferation assay, HDFa; format: cell-based; settings: 48 h treatment, healthy human dermal fibroblasts
Excerpt: as §1, §2, §3

Src-kinase = target: T1, Src-kinase (Homo sapiens, UniProt P12931); assay: Src Kinase Enzyme System, ADP-Glo luminescence; format: biochemical; settings: for Src-kinase area under the curve (AUC): log concentration vs. luminescence, 10 to 0.625 μM, smaller area = more inhibition
T1 construct: purchased Promega Corporation
T1 sequence (P12931 whole entry): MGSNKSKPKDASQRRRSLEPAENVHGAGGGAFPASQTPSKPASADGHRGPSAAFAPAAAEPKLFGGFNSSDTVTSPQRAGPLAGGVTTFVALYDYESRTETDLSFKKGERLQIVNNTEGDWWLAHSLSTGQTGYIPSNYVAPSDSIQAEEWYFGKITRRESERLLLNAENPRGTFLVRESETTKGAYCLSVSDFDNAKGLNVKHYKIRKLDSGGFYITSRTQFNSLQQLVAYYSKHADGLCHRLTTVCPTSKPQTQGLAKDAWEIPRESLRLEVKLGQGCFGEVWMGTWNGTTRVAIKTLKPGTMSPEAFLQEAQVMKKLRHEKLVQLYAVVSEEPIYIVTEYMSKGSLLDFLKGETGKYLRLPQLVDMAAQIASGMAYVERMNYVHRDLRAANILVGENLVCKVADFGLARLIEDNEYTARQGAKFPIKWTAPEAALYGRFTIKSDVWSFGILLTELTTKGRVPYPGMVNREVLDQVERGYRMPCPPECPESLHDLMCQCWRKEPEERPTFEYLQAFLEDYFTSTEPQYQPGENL
Excerpt: On the other hand, there are several enzymes that may be involved in several types of cancer, such as non-receptor tyrosine kinase (c-Src) which belongs to the family of kinases and is expressed in all cell types, but its activity is related to advanced malignancies and an unfavorable prognoses of human cancers, so it is considered a molecular target for studies of potential inhibitors. As with the previous enzyme, similar behavior was obtained, so the area under the curve of each of the compounds was also calculated in order to know which of them generate greater inhibition.
(§4) For the assay of the enzymatic activity, the p38α Kinase Enzyme System (Promega Corporation, Madison, WI, USA) and Src Kinase Enzyme System (Promega Corporation, Madison, WI, USA) kits were used. In this case 25 μL of reaction were added to each well (in the final concentrations shown in Table 4), where 10 μL were from substrate solution (0.2 mg/mL substrate, ATP and 1 × buffer kinase (Promega Corporation)), 10 μL of kinase solution (kinase (Promega Corporation), 1 × buffer kinase (Promega Corporation) and nuclease-free water) and 5 μL of the compounds initially prepared at 1 mM in DMSO and performing serial dilutions in Buffer Kinase (Promega Corporation) from 10 μM to 0.625 μM according to protocol for the kits (Promega Corporation, 2018). The plates were left at room temperature for 1 h, then 25 μL of ADP-Glo ™ Reagent (Promega Corporation) were added, these were placed at room temperature again for 40 min. Finally, 50 μL of the kinase detection reagent will be added and left at room temperature for 45 min [28]. The measurement was made by means of luminescence in an integration time of 0.5 to 1 s in the GENios Plus microplate reader (Grödig/Salzburg, Austria).

[3] = system: MDA-MB-231 breast cancer cell line; assay: MTT cell proliferation assay, MDA-MB-231; format: cell-based; settings: Homo sapiens, 48 h treatment, breast cancer cells
Excerpt: as §1, §2, §3

topoisomerase IIα = target: T2, topoisomerase IIα (Homo sapiens, UniProt P11388); assay: Topoisomerase IIα drug detection kit, kDNA agarose gel; format: biochemical; settings: normalized with 1% DMSO
T2 construct: purchased TopoGen
T2 sequence (P11388 whole entry): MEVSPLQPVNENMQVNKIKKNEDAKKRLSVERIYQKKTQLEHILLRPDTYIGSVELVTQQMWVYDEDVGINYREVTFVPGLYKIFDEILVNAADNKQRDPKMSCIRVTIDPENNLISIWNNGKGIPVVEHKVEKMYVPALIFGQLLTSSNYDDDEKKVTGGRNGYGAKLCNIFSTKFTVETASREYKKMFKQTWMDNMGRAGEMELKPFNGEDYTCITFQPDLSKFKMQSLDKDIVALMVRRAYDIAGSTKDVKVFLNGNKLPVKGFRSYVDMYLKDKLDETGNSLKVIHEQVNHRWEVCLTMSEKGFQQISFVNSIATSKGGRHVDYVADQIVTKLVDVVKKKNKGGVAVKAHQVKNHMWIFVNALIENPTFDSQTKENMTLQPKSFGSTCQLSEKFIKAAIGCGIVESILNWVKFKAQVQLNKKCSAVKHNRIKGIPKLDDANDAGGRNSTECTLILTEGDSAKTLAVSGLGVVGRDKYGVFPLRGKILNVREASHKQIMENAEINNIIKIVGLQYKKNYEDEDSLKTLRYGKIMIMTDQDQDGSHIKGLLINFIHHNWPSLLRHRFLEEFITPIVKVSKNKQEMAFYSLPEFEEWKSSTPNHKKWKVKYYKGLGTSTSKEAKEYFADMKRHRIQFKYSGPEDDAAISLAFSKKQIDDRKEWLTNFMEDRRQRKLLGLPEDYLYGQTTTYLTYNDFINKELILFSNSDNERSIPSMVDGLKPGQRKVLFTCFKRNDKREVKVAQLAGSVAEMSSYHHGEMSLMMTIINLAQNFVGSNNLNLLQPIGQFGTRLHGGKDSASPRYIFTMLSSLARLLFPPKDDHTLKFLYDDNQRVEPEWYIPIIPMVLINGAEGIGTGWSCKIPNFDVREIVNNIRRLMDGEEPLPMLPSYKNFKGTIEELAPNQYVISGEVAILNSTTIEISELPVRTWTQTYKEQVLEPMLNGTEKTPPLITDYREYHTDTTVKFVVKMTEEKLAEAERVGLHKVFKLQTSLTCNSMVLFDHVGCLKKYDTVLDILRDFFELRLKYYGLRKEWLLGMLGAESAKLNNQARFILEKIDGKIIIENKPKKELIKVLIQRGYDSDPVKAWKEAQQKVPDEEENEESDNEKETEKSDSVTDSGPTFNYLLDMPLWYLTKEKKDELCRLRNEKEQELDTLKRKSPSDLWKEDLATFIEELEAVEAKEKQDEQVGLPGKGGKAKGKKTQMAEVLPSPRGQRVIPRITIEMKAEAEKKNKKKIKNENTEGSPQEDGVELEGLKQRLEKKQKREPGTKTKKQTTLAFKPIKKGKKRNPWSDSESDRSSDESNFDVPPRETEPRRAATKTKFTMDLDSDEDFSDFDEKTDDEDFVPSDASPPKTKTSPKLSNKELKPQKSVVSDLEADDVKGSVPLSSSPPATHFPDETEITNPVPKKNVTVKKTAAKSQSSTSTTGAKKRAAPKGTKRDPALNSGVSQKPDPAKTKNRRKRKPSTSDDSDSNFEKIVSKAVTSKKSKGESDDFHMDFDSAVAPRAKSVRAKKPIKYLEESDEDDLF
Description: The Topoisomerase IIα drug detection kit (TopoGen, Buena Vista, VA, USA) was used. Reactions were made with 4 μL of reaction buffer (50 mM Tris-HCl, 5 mM ATP, 150 mM NaCl, 30 μg/mL bovine serum albumin, 0.5 mM dithiothreitol, 10 mM MgCl2), 1 μL of the enzyme topoisomerase IIα ([…], 2 units), 1 μL of the kDNA substrate (approximately 200 ng) and 1 μL of the compounds with activity at 10 μM, so that the final volume was 20 μL completing with nuclease-free water. These reactions were incubated at 37 °C for 30 min, and the reaction was terminated with 4 μL of stop buffer.

p38α-kinase = target: T3, p38α-kinase (Homo sapiens, UniProt Q16539); assay: p38α Kinase Enzyme System, ADP-Glo luminescence; format: biochemical
T3 construct: purchased Promega Corporation
T3 sequence (Q16539 whole entry): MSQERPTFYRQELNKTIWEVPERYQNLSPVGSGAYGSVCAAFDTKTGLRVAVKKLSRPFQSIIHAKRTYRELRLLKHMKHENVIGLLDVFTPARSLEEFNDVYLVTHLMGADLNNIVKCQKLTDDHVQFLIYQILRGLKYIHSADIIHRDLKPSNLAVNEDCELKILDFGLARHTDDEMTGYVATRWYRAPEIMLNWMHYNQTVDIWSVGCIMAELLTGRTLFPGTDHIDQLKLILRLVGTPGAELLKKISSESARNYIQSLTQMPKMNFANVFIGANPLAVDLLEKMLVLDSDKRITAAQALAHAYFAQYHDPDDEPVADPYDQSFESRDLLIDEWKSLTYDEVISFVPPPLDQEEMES
Excerpt: Possibly due to a higher concentration of compounds that generate interaction with a site of the enzymes different from the active site, which leads to a lower inhibition, as explained by Abdel-Magid, where it is stated that most of the drugs are designed to join the primary active sites of the enzymes, known as orthostatic sites. However, these can also have secondary sites or allosteric, in which, at the time of the inhibitors join them, a secondary effect is generated causing an increase in enzymatic activity. Therefore, it was not possible to obtain an IC50 value and the results were analyzed by the area under the curve (AUC). This performs the integral of the function of the logarithm of the concentration vs. luminescence for each of the compounds, and in this way to be able to compare the activity between them.
as §4

[4] = system: L929 fibroblast cell line; assay: MTT cell proliferation assay, L929; format: cell-based; settings: 48 h treatment, healthy mouse fibroblasts
Excerpt: as §1, §2, §3

[5] = system: lung cancer cells line (A549); design: method as in PMID 28635645; settings: cited from earlier work
skin cancer cells = system: skin cancer cells; design: method as in PMID 30858059, PMID 28292936; settings: cited from earlier work

Molecule	IC50 A549 ([1]; 48 h treatment)	IC50 [1]	IC50 [2]	inhibition at 2.5 µM (Src-kinase)	Src-kinase area under the curve (AUC) (Src-kinase)	IC50 [3]	inhibition at 10 µM (topoisomerase IIα)	inhibition at 2.5 µM (p38α-kinase)	IC50 [4]	IC50 [5]	p38α-kinase % inhibition (p38α-kinase; at 2.5 μM)	IC50 (skin cancer cells)
CCCCCC(/C=C/[C@H]1C=CC(=O)[C@@H]1C/C=C\CCCC(=O)OC)OC(C)=O (stereo partly shown) [Compound 1, (5Z,13E)-15-acetyl-oxy-9-oxo-prosta-5,10,13-trien-1-oic acid methyl ester]	ineffective	> 100 µg/mL	28.3 µg/mL (≈ 72.4 µM)	< 40%	above 1500	27.5 µg/mL (≈ 70.5 µM)	45%	42%	71.7 µg/mL (≈ 184 µM)			
sardysterol										27.3 µM		
COc1cccc2c1C(=O)c1c(O)c3c(c(O)c1C2=O)C[C@@](O)(C(=O)CO)C[C@@H]3O[C@H]1C[C@H](N)[C@H](O)[C@H](C)O1 [doxorubicin, reference compound]							88%					
CCCCCC(/C=C/[C@H]1CC[C@H](O)[C@@H]1C/C=C\CCCC(=O)OC)OC(C)=O (stereo partly drawn) [Compound 4, (5Z,9α,13E)-15-acetyloxy-9-hydroxy-prosta-5,13-dien-1-oic acid methyl ester]		> 100 µg/mL	50.7 µg/mL (≈ 128 µM)	< 40%		> 100 µg/mL	26%	37%	54.3 µg/mL (≈ 138 µM)			
CCCCC[C@@H](O)/C=C/[C@H]1CCC(O)[C@@H]1C/C=C\CCCCO (stereo partly shown) [Compound 5, (5Z,13E)-1,9,15-triol-prosta-5,13-diene]		> 100 µg/mL	> 100 µg/mL	46%		> 100 µg/mL	24%	39%	> 100 µg/mL		36%	
CCCCC[C@H](O)/C=C/[C@H]1C(=O)C[C@H](O)[C@@H]1C/C=C\CCCC(=O)NCCO [PGD2-EA]												18 µM
CCCCC/C=C/C=C1/C(=O)C=CC1C/C=C\CCCC(=O)NCCO (stereo not shown) [15-deoxy-Δ^12,14-PGJ2-EA]												20 µM
CCCCCC(O)/C=C/[C@H]1C=CC(=O)[C@@H]1C/C=C\CCCC(=O)O (stereo partly shown) [Compound 2, (5Z,13E) -15-hydroxy-9-oxoprosta 5,10,13 trien-1-oic acid]		25.2 µg/mL (≈ 75.3 µM)	17.9 µg/mL (≈ 53.4 µM)	59%	921	16.5 µg/mL (≈ 49.2 µM)	64%	49%	40.4 µg/mL (≈ 121 µM)			
CCCCCC(/C=C/[C@H]1CC[C@@H](O)[C@@H]1C/C=C\CCCC(=O)OC)OC(C)=O (stereo partly drawn) [Compound 3, (5Z,9β,13E)-15-acetyloxy-9-hydroxy-prosta-5,13-dien-1-oic acid methyl ester]		> 100 µg/mL	> 100 µg/mL	< 40%		> 100 µg/mL	43%	37%	> 100 µg/mL			
